Patent publication US7071205B2 (Ligand Pharmaceuticals Incorporated, priority 2002, dated 2006)
Where two headings read alike, the source gives them in different places.

Key:
hPR [1] = target: T1, hPR (Homo sapiens, UniProt P06401); assay: Cotransfection assay, PR agonist activity in CV-1 cells; type: cell-based; conditions: for PR Agonist CV-1 Cells Efficacy (%): MTV-LUC reporter, percent maximal response relative to progesterone
T1 sequence (P06401 1-933): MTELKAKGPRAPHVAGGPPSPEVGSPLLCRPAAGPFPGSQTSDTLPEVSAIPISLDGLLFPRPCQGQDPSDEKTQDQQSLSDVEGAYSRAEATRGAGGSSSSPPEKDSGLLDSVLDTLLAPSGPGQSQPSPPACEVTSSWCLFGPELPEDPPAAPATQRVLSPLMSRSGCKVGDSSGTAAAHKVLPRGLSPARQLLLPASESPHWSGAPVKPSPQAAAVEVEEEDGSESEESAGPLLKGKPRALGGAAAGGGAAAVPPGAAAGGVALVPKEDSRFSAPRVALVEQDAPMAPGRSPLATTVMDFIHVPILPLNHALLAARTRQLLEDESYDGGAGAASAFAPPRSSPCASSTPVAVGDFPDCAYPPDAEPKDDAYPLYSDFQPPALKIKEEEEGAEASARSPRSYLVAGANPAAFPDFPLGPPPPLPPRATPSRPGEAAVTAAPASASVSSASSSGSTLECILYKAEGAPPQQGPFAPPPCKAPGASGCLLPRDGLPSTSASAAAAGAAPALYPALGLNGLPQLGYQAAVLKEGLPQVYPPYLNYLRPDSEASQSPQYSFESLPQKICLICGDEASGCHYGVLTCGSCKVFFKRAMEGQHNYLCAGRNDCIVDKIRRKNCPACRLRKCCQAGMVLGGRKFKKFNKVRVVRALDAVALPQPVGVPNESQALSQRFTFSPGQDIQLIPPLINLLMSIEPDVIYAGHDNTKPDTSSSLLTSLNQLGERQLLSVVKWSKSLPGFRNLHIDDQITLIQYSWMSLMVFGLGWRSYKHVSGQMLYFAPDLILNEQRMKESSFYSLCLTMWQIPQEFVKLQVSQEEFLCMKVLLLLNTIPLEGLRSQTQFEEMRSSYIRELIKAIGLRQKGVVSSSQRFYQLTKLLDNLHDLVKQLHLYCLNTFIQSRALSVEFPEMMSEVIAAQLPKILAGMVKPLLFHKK
Description: (§1) All the cotransfection experiments were carried out in 96-well plates by automation (Beckman Biomomek automated workstation).

hPR [2] = target: T1, hPR; assay: Cotransfection assay, PR antagonist activity in CV-1 cells; type: cell-based; conditions: for PR Antagonist CV-1 Cells Efficacy (%): percent maximal response relative to reference antagonist; for IC50: antagonist potency IC50
Description: as §1

immature rabbits = assay: McPhail (Clauberg) assay of progestational activity; type: in vivo, rabbit; conditions: minimum active dose; estradiol-primed immature rabbits, uterine glandular changes
Description: The in vivo activity of selected hPR modulator compounds of the present invention were evaluated utilizing the McPhail assay, according to the following illustrative Examples. The Clauberg or McPhail assay is a classic assay utilizing rabbits to measure progestational activity. […] This is followed by treatment with a progestin, which causes a large change in the glandular content of the uterus. It is this change in the glandular component, which is a measure of the progestational activity of a progestin. The measurement of these glandular changes are carried out histologically using stained sections of the uterus. The in vivo potency of the progestins is presented as the minimum active dose (MAD) in mg/kg.

hPR-A = target: T2, hPR-A (Homo sapiens, UniProt P06401); assay: Receptor competitive binding assay
T2 sequence (P06401 1-769 isoform P06401-2): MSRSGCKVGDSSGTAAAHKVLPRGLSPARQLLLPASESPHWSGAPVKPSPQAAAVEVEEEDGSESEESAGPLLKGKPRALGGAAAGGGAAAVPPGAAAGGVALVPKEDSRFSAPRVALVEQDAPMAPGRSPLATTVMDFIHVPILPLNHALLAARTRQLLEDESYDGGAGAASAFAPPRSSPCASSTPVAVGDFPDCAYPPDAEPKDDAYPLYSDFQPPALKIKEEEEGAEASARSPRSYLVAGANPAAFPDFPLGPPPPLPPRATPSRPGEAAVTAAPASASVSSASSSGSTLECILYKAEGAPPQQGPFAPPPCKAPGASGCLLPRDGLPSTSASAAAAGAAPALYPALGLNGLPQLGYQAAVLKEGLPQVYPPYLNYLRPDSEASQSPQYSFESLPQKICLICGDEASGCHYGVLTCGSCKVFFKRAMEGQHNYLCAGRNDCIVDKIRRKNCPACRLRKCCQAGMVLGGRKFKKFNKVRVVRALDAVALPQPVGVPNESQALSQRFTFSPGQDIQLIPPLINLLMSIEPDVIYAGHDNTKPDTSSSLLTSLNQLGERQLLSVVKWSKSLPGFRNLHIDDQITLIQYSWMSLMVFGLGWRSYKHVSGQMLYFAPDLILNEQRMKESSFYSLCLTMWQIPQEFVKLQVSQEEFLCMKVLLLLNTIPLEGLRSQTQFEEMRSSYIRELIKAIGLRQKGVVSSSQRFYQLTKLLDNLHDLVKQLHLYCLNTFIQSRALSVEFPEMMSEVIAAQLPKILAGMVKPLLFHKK

[3] = CV-1 cells, agonist potency EC50, read-out: PR Agonist CV-1 Cells Potency
[4] = Table 2, repeats PR agonist potency of Table 1, read-out: EC50
[5] = Table 2, repeats PR binding Ki of Table 1, read-out: ki

Structure (SMILES) | PR Agonist CV-1 Cells Efficacy (%) (hPR [1]; CV-1 cells) | PR Antagonist CV-1 Cells Efficacy (%) (hPR [2]) | MAD (immature rabbits) | EC50 (hPR [1]; [3]) | IC50 (hPR [2]) | Ki (hPR-A; hPR-A, read-out: PR Binding Ki) | EC50 (hPR [1]; [4]) | Ki (hPR-A; [5])
CC1=CC(C2Oc3c(F)cc(F)cc3-c3ccc4c(c32)C(C)=CC(C)(C)N4)CCC1 (single isomer, unassigned; (-)) [Compound 38, (−)-(5l,1′l)-5-(3-methyl-2-cyclohexenyl)-7,9-difluoro-1,2-dihydro-2,2,4-trimethyl-5H-chromeno[3,4-f]quinoline] | 166% | na (na = not active (i.e. efficacy of <20 and potency of >10,000)) | 0.10 mg/kg |  |  |  |  | 
CC1=CC(C2Oc3ccc(F)cc3-c3ccc4c(c32)C(C)=CC(C)(C)N4)CCC1 (single isomer, unassigned; (-)) [Compound 28, (−)-(5l,1′l)-5-(3-methyl-2-cyclohexenyl)-9-fluoro-1,2-dihydro-2,2,4-trimethyl-5H-chromeno[3,4-f]quinoline] | 171% | na (na = not active (i.e. efficacy of <20 and potency of >10,000)) |  | 0.9 nM | > 10000 nM | 2 nM |  | 
CC1=CC(C)(C)Nc2ccc3c(c21)C(C1CCC(C)=C1C)Oc1c(F)cc(F)cc1-3 (racemic) [Compound 71, (±)-(5l,1′l)-5-(2,3-dimethyl-2-cyclopentenyl)-7,9-difluoro-1,2-dihydro-2,2,4-trimethyl-5H-chromeno[3,4-f]quinoline] | 139% | na (na = not active (i.e. efficacy of <20 and potency of >10,000)) | 0.25 mg/kg | 3.4 nM | > 10000 nM | 3.9 nM | 3.4 nM | 3.9 nM
CC1=C[C@H]([C@H]2Oc3c(F)cc(F)cc3-c3ccc4c(c32)C(C)=CC(C)(C)N4)CCC1 (racemic) [Compound 34, (±)-(5l,1′l)-5-(3-methyl-2-cyclohexenyl)-7,9-difluoro-1,2-dihydro-2,2,4-trimethyl-5H-chromeno[3,4-f]quinoline] | 164% | na (na = not active (i.e. efficacy of <20 and potency of >10,000)) | 0.25 mg/kg |  |  |  |  | 
CC1=C[C@@H]([C@H]2Oc3ccc(F)cc3-c3ccc4c(c32)C=CC(C)(C)N4)CCC1 (racemic) [Compound 42, (±)-(5l,1′u)-5-(3-methyl-2-cyclohexenyl)-9-fluoro-1,2-dihydro-2,2-dimethyl-5H-chromeno[3,4-f]quinoline] | 27% | na (na = not active (i.e. efficacy of <20 and potency of >10,000)) |  | 38 nM | > 10000 nM | 143 nM |  | 
CC1=CC(C2Oc3ccc(F)cc3-c3ccc4c(c32)C(C)=CC(C)(C)N4)CCC1 (racemic) [Compound 24, (±)-(5l,1′l)-5-(3-methyl-2-cyclohexenyl)-9-fluoro-1,2-dihydro-2,2,4-trimethyl-5H-chromeno[3,4-f]quinoline] | 168% | na (na = not active (i.e. efficacy of <20 and potency of >10,000)) | 0.25 mg/kg | 3.6 nM | > 10000 nM | 6.4 nM | 3.6 nM | 6.4 nM
COc1cc2c(cc1F)-c1ccc3c(c1C(C1C=C(C)CCC1)O2)C(C)=CC(C)(C)N3 (racemic) [Compound 65, (±)-(5l,1′u)-5-(3-methyl-2-cyclohexenyl)-9-fluoro-1,2-dihydro-8-methoxy-2,2,4-trimethyl-5H-chromeno[3,4-f]quinoline] | na (na = not active (i.e. efficacy of <20 and potency of >10,000)) | 59% |  | > 10000 nM | 650 nM | 329 nM |  | 
CC1=C[C@H]([C@H]2Oc3ccc(F)cc3-c3ccc4c(c32)C=CC(C)(C)N4)CCC1 (racemic) [Compound 41, (±)-(5l,1′l)-5-(3-methyl-2-cyclohexenyl)-9-fluoro-1,2-dihydro-2,2-dimethyl-5H-chromeno[3,4-f]quinoline] | 122% | na (na = not active (i.e. efficacy of <20 and potency of >10,000)) |  | 10 nM | > 10000 nM | 11 nM |  | 
